Experimental data: patent publication US20010055627A1, “Compositions And Methods For Regulating Lipoproteins And Hypercholesterolemia With Limonoids, Flavonoids And Tocotrienols” (priority 1997, published 2001)
≈ marks a conversion by molar mass, not a printed value. Like-named read-outs stand apart in the source and are kept apart here.

Columns and labels:
[1] = system: HepG2 cells; experiment: MTT viability assay, highest non-toxic concentration; format: cell-based, human; conditions: HepG2, 100% cell viability by MTT
Experimental: (§1) The limonoids, limonin and nomilin were examined for the cholesterol-lowering potential in HepG2 cells. Confluent HepG2 cells were preincubated for 24 h in a lipoprotein-free medium in which the fetal bovine serum was replaced by albumin to inhibit cell proliferation and to stimulate synthesis of cholesterol-containing lipoproteins. Cells were subsequently incubated for another 24 h in the same medium in the presence or absence of limonoids at the highest concentrations sustaining 100% cell viability, as determined by 3-(4,5-dimethylthiazol-2-yl)-2,5-diphenyltetrazolium bromide (MTT) viability assay. The limonoids were added to the cell culture medium after solubilization in dimethyl sulfoxide (DMSO). At the end of the incubation, culture media were collected and the concentration of the LDL structural protein, apo-B, was measured by Elisa by procedures already described in Section 6.0. Amount of lipoprotein-associated apo-B in the media (net apo-B secretion) was determined as described previously, calculated per mg cell protein and expressed as percent of control.

[2] = system: 14C-acetate incorporation into cellular lipids in HepG2 cells; experiment: 14C-acetate incorporation into cellular lipids of HepG2 cells; format: cell-based, human; conditions: HepG2, 24 h, 50 μg/ml (highest non-toxic concentration)
Experimental: ^14C-acetate Incorporation: To determine whether exposure to flavonoids can also alter intracellular lipid metabolism, confluent HepG2 cells were incubated for 24 hours with the highest apo-B-reducing, non-toxic concentration of these flavonoids, in the presence of ^14C-acetate (0.5u Ci/ml medium). Radiolabelled lipids were then extracted from cells using heptane/isopropyl alcohol (3:2, v/v), and separated by thin layer chomatrography. A hexane/ethyl ether/acetic acid solvent (75:25:1, v/v) was used to separate cholesterol, cholesterol esters and triglycerides. Lipid fractions were scraped into scintillation vials and the radioactivity was measured using Beckman Scintillation Counter.
To determine whether exposure to limonin altered intracellular lipid metabolism, confluent HepG2 cells were incubated for 24 h with or without the highest non-cytotoxic concentration of limonin. During the last 5 h of the incubation, ^14C-acetate (0.5 μCi/mL) was added to the medium. The extraction and separation of cellular lipids was done described above.

[3] = system: apo-B production in HepG2 cells; experiment: Apo-B content of medium of HepG2 cells by ELISA; format: cell-based, human; conditions: for effect on apo-B levels/content / reduction of medium apo-B levels: HepG2, 24 h; for reduction of medium apo-B levels: 50 μg/mL, per mg cell protein, versus control
Experimental: Cell Culture: Confluent HepG2 cells were preincubated in minimum essential medium (MEM) containing 1.0% bovine serum albumin (BSA) for 24 hours. This was followed by a second 24 hour incubation with or without various non-toxic concentrations of naringenin or hesperitin (7.5-60 ug/ml). At the end of the second 24 hour incubation, the apo-B content of the media was determined by enzyme-lined immunosorbent assay (ELISA) (Young et al., 1986, Clin. Chem. 32:1484-1490).
Protein Determination: The soluble cellular protein was extracted and measured using Pierce Coomassie Plus Protein Assay.
as §1
Apo-B productioon (the structural protein of LDL) was studied in HepG2 cells, using a 24. The effect of flavonoids on apo-B production after 24 h incubation of cells and measuring apo-B by Elisa as described above. All flavonoids, reduced the apo-B levels dose dependently.

[4] = system: casein-induced hypercholesterolemia; experiment: Serum lipoprotein cholesterol in rabbits fed cholesterol-free casein diet with citrus juice; format: in vivo; conditions: rabbits on casein diet, 3 weeks; hesperitin given as orange juice, naringenin as grapefruit juice (two times regular strength)
Excerpt: The effect of naringenin and hesperetin on casein-induced hypercholesterolemia was studied in rabbits. In each of the two experiments, rabbits were assigned to thee experimental groups. Each group was given semipurified, cholesterol-free casein diet and either water, orange juice or grapefruit juice to drink. The control group received water to drink and the experimental groups were given either orange juice or grapefruit juice (reconstituted concentrates made up to two times the regular strength). […] FIG. 1 depicts the design of the experiment.
Dextrose in the diets of the hesperitin (orange juice) and naringenin (grapefruit juice) groups was reduced to account for the sugar consumed via citrus juices. All other dietary components were left unchanged. (Table 1).
Serum Analysis: At the end of the study, VLDL, LDL and HDL fractions were separated by discontinuous density gradient ultracentrifugation. Total cholesterol in serum and in each lipoprotein fraction were measured using the Boehinger Manheim CHOL kit (Manheim, Germany).

[5] = Growth performance of hamsters fed experimental diets; format: in vivo, Golden Syrian hamsters; conditions: supplement level as in label, means ± SD; for Growth Rate: diet for 35 days; for Food Consumption: last two weeks of treatment
Experimental: (§2) Fifty four male Golden Syrian hamsters weighing 100-120 g at arrival were housed individually in a constant temperature 21-24° C. and with 12 h light:dark cycle. The animals were fed ground chow diet for 1 week. Thereafter, they were divided into seven groups (six groups of 8 animals and one group of 6 animals), each with similar average body weight, and fed experimental diets for 35 days. Food and water were provided at libitum. Food consumption was estimated during the last two weeks of treatment, for thee consecutive days during each week.
(§3) The basal composition was similar to that described earlier. All diets contained 25% casein and 0.1% cholesterol. Experimental diets contained TTP and/or principal flavonoids, hesperidin or naringenin, added at indicated levels at the expense of rice flour.

[6] = system: hamster model of experimental hypercholesterolemia; experiment: Serum lipids in hamster model of experimental hypercholesterolemia (casein, cholesterol-enriched diet); format: in vivo, Golden Syrian hamsters; conditions: hamsters; for HDL cholesterol (serum) / Total cholesterol (serum) / Total triacylglycerols (serum) / VLDL + LDL Cholesterol (serum) / VLDL + LDL/HDL cholesterol ratio: 35 days on diet; for HDL cholesterol (serum) / Total cholesterol (serum) / Total triacylglycerols (serum): supplement level as in label; for HDL cholesterol (serum) / Total cholesterol (serum) / VLDL + LDL Cholesterol (serum) / VLDL + LDL/HDL cholesterol ratio: mean; for Total triacylglycerols (serum): means ± SD; for VLDL + LDL Cholesterol (serum): difference between total and HDL cholesterol
Experimental: Extracted flavonoids and a tocotrienol-rich preparation from palm oil, all provided by KGK Synergize Inc. London, Ontario, were tested in the hamster model of experimental hypercholesterolemia. The purpose of the study was to establish whether in this model, 2% supplementation of casein diet with palm tocotrienol preparation containing 70% of pure tocotrienols α-, γ- and δ-(TTP), or a similar 2% supplementation with flavonoids, hesperidin extrated from oranges and naringin extrated from grapefruit, could lower the elevated LDL cholesterol levels induced by casein. A further purpose of the study was to determine whether supplementation with 2% TTP in combination with 2% hesperidin or 2% naringin could result in synergistic cholesterol-lowering effects. Synergistic cholesterol-lowering responses have been observed for combinations of tocotrienols and citrus flavonoids in human liver cell line HepG2. The additional goal of this study was to establish whether in the same hamster model of hypercholesterolemia, 0.13% supplementation of casein diet with a mixture of polymethoxylated flavones from tangerines (PMF) could lower the elevated LDL cholesterol levels induced by casein. This experiment was based on previous tests In vitro using human liver cell line HepG2, in which principal flavonoids from PMF, tangeretin and nobiletin, had much greater cholesterol-lowering potential than hesperetin or naringenin.
In hamsters, feeding a semipurified, casein-based, cholesterol-enriched diet for the period of 5 weeks induces experimental hypercholesterolemia associated with elevation of LDL cholesterol, similar to that observed in humans.
as §2, §3
At the end of the study, the animals were fasted overnight and blood samples were taken by heart puncture. Total cholesterol in whole serum and in HDL fraction as well as total triacylglycerols were measured by enzymatic timed-endpoint methods, using the Beckman Coulter reagents (CHOL Reagent, HDLD HDL Reagent and TG Triglycerides GPO Reagent, respectively). All measurements were performed using SYNCHON LX System. VLDL+LDL cholesterol concentrations were calculated as a difference between total and HDL cholesterol. Results obtained were analyzed by one-way ANOVA followed by Dunnet's or Student-Newman-Keuls test for all groups and additionally by t-test for the PMF vs. the control group. Significant differences were reported at p<0.05.

[7] = Homo sapiens, HepG2, comparison of limonin and flavonoids, FIG. 5, read-out: IC50 apo-B content
[8] = five weeks, versus control diet, 2% in diet (PMF 0.13%)

SMILES: CC1(C)O[C@H]2CC(=O)OC[C@]23[C@H]2CC[C@@]4(C)[C@H](c5ccoc5)OC(=O)[C@H]5O[C@]54[C@]2(C)C(=O)C[C@@H]13 [limonin]
- highest non-toxic concentration [1]: 50 µg/mL
- effect on 14C-acetate incorporation into cellular cholesterol, cholesteryl esters and triacylglycerols [2]: no effect
- effect on apo-B levels/content [3]: reduced the apo-B content in a dose-dependent manner
- reduction of medium apo-B levels [3]: 74%
- IC50 concentration times lower than for both flavonoids (hesperetin, naringenin) ([3]; HepG2 apo-B): 2-2.4 times
- IC50 [3, 7]: 20.5 µM

SMILES: COc1ccc([C@@H]2CC(=O)c3c(O)cc(O)cc3O2)cc1O [hesperetin]
- reduction of LDL cholesterol levels compared with those given water [4]: 43%
- effect on apo-B levels/content [3]: reduced the apo-B content in a dose-dependent manner
- IC50 apo-B production ([3]; HepG2, 24 h incubation, ELISA): 43.0 µg/mL (≈ 142 µM)
- IC50 ([3]; HepG2, comparison of limonin and flavonoids, FIG. 5, read-out: IC50 apo-B content): 43 µM

SMILES: COc1ccc(-c2cc(=O)c3c(OC)c(OC)c(OC)c(OC)c3o2)cc1OC [nobiletin]
- IC50 apo-B production ([3]; HepG2, 24 h incubation, ELISA): 4.9 µg/mL (≈ 12.2 µM)

SMILES: COc1ccc([C@@H]2CC(=O)c3c(O)cc(O[C@@H]4O[C@H](CO[C@@H]5O[C@@H](C)[C@H](O)[C@@H](O)[C@H]5O)[C@@H](O)[C@H](O)[C@H]4O)cc3O2)cc1O [hesperidin]
- Growth Rate [5]: 0.98 ± 0.24 g/day
- Food Consumption [5]: 13.15 ± 4.72 g/day
- HDL cholesterol (serum) [6]: 4.07 mM/L
- Total cholesterol (serum) [6]: 6.73 mM/L
- Total triacylglycerols (serum) [6]: 2.64 ± 1.47 mM/L
- VLDL + LDL Cholesterol (serum) [6]: 2.66 mM/L
- VLDL + LDL/HDL cholesterol ratio [6]: 0.66
- Percent change HDL cholesterol ([6]; 35 days, versus control diet): −7%
- Percent change Total cholesterol ([6]; 35 days, versus control diet): −9%
- Percent change Total triacylglycerols ([6]; 35 days, versus control diet): −36%
- Percent change VLDL + LDL Cholesterol ([6]; 35 days, versus control diet): −12%
- reduction of serum HDL cholesterol [6, 8]: 7%
- reduction of serum total triacylglycerols [6, 8]: 36%

SMILES: O=C1C[C@@H](c2ccc(O)cc2)Oc2cc(O)cc(O)c21 [naringenin]
- reduction of LDL cholesterol levels compared with those given water [4]: 32%
- effect on apo-B levels/content [3]: reduced the apo-B content in a dose-dependent manner
- IC50 ([3]; Homo sapiens, HepG2, 24 h incubation, ELISA, read-out: IC50 apo-B production): 48.5 µg/mL
- IC50 [3, 7]: 48.5 µM

SMILES: CC(=O)O[C@H]1CC(=O)OC(C)(C)[C@@H]2CC(=O)[C@]3(C)[C@H](CC[C@@]4(C)[C@H](c5ccoc5)OC(=O)[C@H]5O[C@]543)[C@@]12C [nomilin]
- reduction of medium apo-B levels [3]: 40%

SMILES: C[C@@H]1O[C@@H](O[C@H]2[C@H](Oc3cc(O)c4c(c3)O[C@H](c3ccc(O)cc3)CC4=O)O[C@H](CO)[C@@H](O)[C@@H]2O)[C@H](O)[C@H](O)[C@H]1O [naringin]
- Growth Rate [5]: 1.03 ± 0.26 g/day
- Food Consumption [5]: 10.44 ± 2.36 g/day
- HDL cholesterol (serum) [6]: 3.89 mM/L
- Total cholesterol (serum) [6]: 6.56 mM/L
- Total triacylglycerols (serum) [6]: 3.58 ± 1.40 mM/L
- VLDL + LDL Cholesterol (serum) [6]: 2.66 mM/L
- VLDL + LDL/HDL cholesterol ratio [6]: 0.68
- Percent change HDL cholesterol ([6]; 35 days, versus control diet): −11%
- Percent change Total cholesterol ([6]; 35 days, versus control diet): −11%
- Percent change VLDL + LDL Cholesterol ([6]; 35 days, versus control diet): −12%
- reduction of serum HDL cholesterol [6, 8]: 11%
- reduction of serum total cholesterol [6, 8]: 11%

SMILES: COc1ccc(-c2cc(=O)c3c(OC)c(OC)c(OC)c(OC)c3o2)cc1 [tangeretin]
- IC50 apo-B production ([3]; HepG2, 24 h incubation, ELISA): 2.5 µg/mL (≈ 6.71 µM)
